Assay results taken from paper PMC3996911 (Molecular cell, 2014).

Tests used:
PPX = target: T1, PPX (Escherichia coli, UniProt P0AFL6); assay: specific activity after incubation with N-chlorotaurine; format: biochemical; settings: covalent (oxidation of Cys169 and, to a lesser extent, Cys85)
T1 sequence (P0AFL6 2-513): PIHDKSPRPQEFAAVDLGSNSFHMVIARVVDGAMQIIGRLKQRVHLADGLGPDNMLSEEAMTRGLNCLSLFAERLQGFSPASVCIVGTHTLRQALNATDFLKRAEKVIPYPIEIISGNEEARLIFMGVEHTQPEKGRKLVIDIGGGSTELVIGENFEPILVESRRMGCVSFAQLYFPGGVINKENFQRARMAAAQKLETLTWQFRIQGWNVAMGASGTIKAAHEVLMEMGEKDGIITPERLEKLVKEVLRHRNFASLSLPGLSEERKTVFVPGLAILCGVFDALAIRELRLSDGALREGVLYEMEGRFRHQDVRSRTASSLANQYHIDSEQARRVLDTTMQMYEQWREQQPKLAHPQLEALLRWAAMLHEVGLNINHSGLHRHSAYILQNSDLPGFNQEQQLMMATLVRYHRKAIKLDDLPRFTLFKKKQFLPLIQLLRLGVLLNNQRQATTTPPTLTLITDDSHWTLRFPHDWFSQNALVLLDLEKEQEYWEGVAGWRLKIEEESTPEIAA

PPK = PPK (Escherichia coli, UniProt P0A7B1)
Chain of PPK (P0A7B1 2-688): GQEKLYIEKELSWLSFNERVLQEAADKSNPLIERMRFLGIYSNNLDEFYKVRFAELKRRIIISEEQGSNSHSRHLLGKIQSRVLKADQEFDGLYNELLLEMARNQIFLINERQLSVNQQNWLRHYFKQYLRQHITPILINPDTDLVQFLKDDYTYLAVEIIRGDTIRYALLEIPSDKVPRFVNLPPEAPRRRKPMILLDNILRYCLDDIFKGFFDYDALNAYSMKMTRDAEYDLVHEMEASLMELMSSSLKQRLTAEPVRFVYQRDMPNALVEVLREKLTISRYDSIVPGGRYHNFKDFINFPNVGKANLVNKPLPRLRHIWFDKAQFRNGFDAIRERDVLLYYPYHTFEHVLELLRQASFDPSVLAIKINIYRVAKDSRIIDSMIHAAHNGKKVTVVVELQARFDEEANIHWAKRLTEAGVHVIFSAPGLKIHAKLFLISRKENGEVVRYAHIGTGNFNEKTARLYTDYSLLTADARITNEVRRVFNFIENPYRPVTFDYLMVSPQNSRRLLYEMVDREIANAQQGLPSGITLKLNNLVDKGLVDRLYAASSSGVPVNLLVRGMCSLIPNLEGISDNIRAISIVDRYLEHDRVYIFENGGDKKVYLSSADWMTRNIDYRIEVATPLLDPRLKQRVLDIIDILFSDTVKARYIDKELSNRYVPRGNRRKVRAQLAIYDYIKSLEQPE

Structure (SMILES): O=S(=O)(O)CCNCl [N-chlorotaurine]
- specific activity after incubation with N-chlorotaurine (PPX): Purified PPX proved to be highly sensitive to inactivation by N-chlorotaurine

Structure (SMILES): Nc1ncnc2c1ncn2[C@@H]1O[C@H](COP(=O)(O)OP(=O)(O)OP(=O)(O)O)[C@@H](O)[C@H]1O [ATP]
- specific activity, forward reaction (polyP synthesis) (PPK): Specific activity of PPK’s forward and reverse reactions (see Figure 1C)
